Structures are written as SMILES. Where a name gives a salt, the structure may show the parent alone.

The values that follow come from patent publication US12662461B2, “Tricyclic compound and pharmaceutical use thereof” (JD BIOSCIENCE INC., priority 2019, dated 2026).

Sequence of serotonin 2A (5-HT2A) receptor (P28223 whole entry, species assumed): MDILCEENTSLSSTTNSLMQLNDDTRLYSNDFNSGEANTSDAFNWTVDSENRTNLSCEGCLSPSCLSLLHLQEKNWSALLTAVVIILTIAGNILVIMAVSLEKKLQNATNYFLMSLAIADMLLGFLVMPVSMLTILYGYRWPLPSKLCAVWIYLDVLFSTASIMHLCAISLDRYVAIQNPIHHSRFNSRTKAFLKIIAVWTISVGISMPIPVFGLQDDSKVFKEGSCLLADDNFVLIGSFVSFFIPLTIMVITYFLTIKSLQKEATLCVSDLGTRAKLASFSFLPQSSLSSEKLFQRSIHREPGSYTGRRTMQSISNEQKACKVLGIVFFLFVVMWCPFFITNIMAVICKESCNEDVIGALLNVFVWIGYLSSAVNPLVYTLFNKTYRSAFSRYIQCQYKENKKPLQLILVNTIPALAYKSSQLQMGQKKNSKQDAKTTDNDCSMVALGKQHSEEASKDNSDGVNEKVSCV

This assay deals with serotonin 2A (5-HT2A) receptor (Homo sapiens, UniProt P28223). Briefly: Measurement of inhibitory activity against serotonin 2A receptor (in vitro). The format is biochemical. The following applies: inhibitory activity against serotonin 2A (5-HT2A) receptor. An excerpt:
Experimental Example: Measurement of Inhibitory Activity Against Serotonin 2A Receptor
For `O=c1[nH]c2ccccc2c(=O)n1CCN1CCC(=C2c3ccc(Cl)cc3CCc3cccnc32)CC1` [Example 12, 3-(2-(4-(8-chloro-5,6-dihydro-11H-benzo[5,6]cyclohepta[1,2-b]pyridin-11-ylidene)piperidin-1-yl)ethyl)quinazoline-2,4(1H,3H)-dione], the IC50 (usually the concentration at which inhibition is half-maximal) stood at 47 nM.

`CN1CCC(=C2c3ccc(Cl)cc3CCc3cccnc32)CC1` [Example 13, 8-chloro-11-(1-methylpiperidin-4-ylidene)-6,11-dihydro-5H-benzo[5,6]cyclohepta[1,2-b]pyridine]: half-maximal inhibition (IC50) required 119 nM.

On to `N[C@@H](Cc1ccc(OCCCCN2CCC(=C3c4ccc(Cl)cc4CCc4cccnc43)CC2)cc1)C(=O)O` [Example 14, (S)-2-amino-3-(4-(4-(4-(8-chloro-5,6-dihydro-11H-benzo[5,6]cyclohepta[1,2-b]pyridin-11-ylidene)piperidin-1-yl)butoxy)phenyl)propionic acid trihydrochloride], for which the IC50 was 188 nM.

Regarding `Cc1nc2sccn2c1C(O)CN1CCC(=C2c3ccc(Cl)cc3CCc3cccnc32)CC1` (stereo not shown) [Example 15, 2-(4-(8-chloro-5,6-dihydro-11H-benzo[5,6]cyclohepta[1,2-b]pyridin-11-ylidene)piperidin-1-yl)-1-(6-methylimidazo[2,1-b]thiazol-5-yl)ethan-1-ol], the midpoint of inhibition, the IC50, lay at 30 nM.

For the molecule `O=C1CCc2ccc(OCCCCN3CCC(=C4c5ccc(Cl)cc5CCc5cccnc54)CC3)cc2N1` [Example 18, 7-(4-(4-(8-chloro-5,6-dihydro-11H-benzo[5,6]cyclohepta[1,2-b]pyridin-11-ylidene)piperidin-1-yl)butoxy)-3,4-dihydroquinolin-2(1H)-one], the 50% inhibitory concentration (IC50) was determined as 1.3 nM.

With `O=C1C2CCCCC2C(=O)N1CCCCN1CCC(=C2c3ccc(Cl)cc3CCc3cccnc32)CC1` (stereo not shown) [Example 19, 2-(4-(4-(8-chloro-5,6-dihydro-11H-benzo[5,6]cyclohepta[1,2-b]pyridin-11-ylidene)piperidin-1-yl)butyl)hexahydro-1H-isoindole-1,3(2H)-dione], the concentration for half-maximal inhibition (IC50) amounted to 0.19 nM.

Regarding `N[C@@H](Cc1ccc(OCCCCN2CCC(=C3c4ccc(Cl)cc4CCc4cccnc43)CC2)c(Cl)c1)C(=O)O` [Example 20, (S)-2-amino-3-(3-chloro-4-(4-(4-(8-chloro-5,6-dihydro-11H-benzo[5,6]cyclohepta[1,2-b]pyridin-11-ylidene)piperidin-1-yl)butoxy)phenyl)propionic acid trihydrochloride], inhibition was half-maximal at 2.08 nM (IC50).

Molecule `N[C@@H](Cc1ccc(OCCCN2CCC(=C3c4ccc(Cl)cc4CCc4cccnc43)CC2)c(Cl)c1)C(=O)O` [Example 21, (S)-2-amino-3-(3-chloro-4-(3-(4-(8-chloro-5,6-dihydro-11H-benzo[5,6]cyclohepta[1,2-b]pyridin-11-ylidene)piperidin-1-yl)propoxy)phenyl)propionic acid trihydrochloride] yielded an IC50 of 2.1 nM.

As to `N[C@@H](Cc1ccc(OCCCN2CCC(=C3c4ccc(Cl)cc4CCc4cccnc43)CC2)cc1)C(=O)O` [Example 22, (S)-2-amino-3-(4-(3-(4-(8-chloro-5,6-dihydro-11H-benzo[5,6]cyclohepta[1,2-b]pyridin-11-ylidene)piperidin-1-yl)propoxy)phenyl)propionic acid trihydrochloride], the IC50 was determined as 1.3 nM.

As to `O=C(CN1CCC(=C2c3ccc(Cl)cc3CCc3cccnc32)CC1)c1ccc(Br)cc1` [Example 24, 1-(4-bromophenyl)-2-(4-(8-chloro-5,6-dihydro-11H-benzo[5,6]cyclohepta[1,2-b]pyridin-11-ylidene)piperidin-1-yl)ethan-1-one], the IC50 turned out to be 8.1 nM.

`OC(CN1CCC(=C2c3ccc(Cl)cc3CCc3cccnc32)CC1)c1ccc(Br)cc1` (stereo not shown) [Example 27, 1-(4-bromophenyl)-2-(4-(8-chloro-5,6-dihydro-11H-benzo[5,6]cyclohepta [1,2-b]pyridin-11-ylidene)piperidin-1-yl)ethan-1-ol] showed an IC50 of 1.19 nM.

`O=C1C2C(C(=O)N1CCCCN1CCC(=C3c4ccc(Cl)cc4CCc4cccnc43)CC1)[C@H]1CC[C@@H]2C1` (stereo partly drawn) [Example 30, (4R,7S)-2-(4-(4-(8-chloro-5,6-dihydro-11H-benzo[5,6]cyclohepta[1,2-b]pyridin-11-ylidene)piperidin-1-yl)butyl)hexahydro-1H-4,7-methanoisoindole-1,3(2H)-dione]: inhibition was half-maximal at 0.15 nM (IC50).

For `COc1cccc(CCc2ccccc2OCC(O)CN2CCC(=C3c4ccc(Cl)cc4CCc4cccnc43)CC2)c1` (stereo not shown) [Example 60, 1-(4-(8-chloro-5,6-dihydro-11H-benzo[5,6]cyclohepta[1,2-b]pyridin-11-ylidene)piperidin-1-yl)-3-(2-(3-methoxyphenethyl)phenoxy)propan-2-ol], the IC50 came to 30.8 nM.
